Source: patent US20250134904A1, “SOLID PHARMACEUTICAL FORMULATIONS OF VARENICLINE” (MEDICHEM, S.A., priority 2021, published 2025)
Counter-ions that a name gives are not always drawn.

Experiments:
[1] = based on lifetime exposure; cited from earlier work
[2] = HPLC-MS quantification of N-nitroso-varenicline impurity (II) in tablets, after manufacture and after storage/stress; format: physicochemical; conditions: starting material before tablet manufacture
Experimental: The N-nitroso-varenicline-impurity (II) level in the solid pharmaceutical formulation of the present invention may be detected by high performance liquid chromatography (HPLC) method disclosed in the present invention.
HPLC Method Used for Analyzing N-Nitroso-Varenicline Impurity (II)
The chromatographic separation was carried out using an Acquity UPLC HSS PFP, 2.1×100 mm, 1.8 μm at 35±2° C.
Mobile phase A: 0.05% (v/v) formic acid solution in water.
Mobile phase A is prepared as follows: Dilute with water, 0.5 mL of formic acid in a 1000 mL volumetric flask.
Mobile phase B: Acetonitrile LC-MS grade.
The chromatograph was programmed as follows: initial 2 min isocratic 90% mobile phase A; 2-11 min linear gradient to 50% mobile phase A; 11-16 min isocratic 50% mobile phase A; 16-18 min linear gradient to 90% mobile phase A; 18-23 min isocratic 90% mobile phase A.
The chromatograph was equipped with equipped with a mass detector. The acquisition was made in Single Ion Monitoring. The ion with m/z 241.0 was monitored at 0.8 points/s. The ionization mode was positive electrospray (ESI+), the source temperature was set at 130° C., desolvation gas flow was at 500 L/h and the capillary voltage was set at 3 kV. The cone voltage was set at 20 V for the ion with m/z 241.0. […]
The quantification (μg/g or ppm) of N-nitroso-varenicline impurity (II) in test specimen was performed as follows: […]

| N-nitroso-varenicline impurity (II) content of the varenicline tartrate used as starting material [2] | SMILES | intake considered reasonably safe for humans (FDA) [1] |
| --- | --- | --- |
| – | O=NN1CC2CC(C1)c1cc3nccnc3cc12 [N-nitroso-varenicline impurity (II)] | up to 37 ng/day |
| less than 0.4 ppm | c1cnc2cc3c(cc2n1)C1CNCC3C1 [varenicline tartrate, 7,8,9,10-tetrahydro-6,10-methano-6H-pyrazino[2,3-h][3]benzazepine] | – |
